# Data published in US20030212013A1, “Use of amp kinase activators for treatment type 2 diabetes and insulin resistance” (priority 2002, published 2003).
# “And” between values parts separate entries of the source, which are not always exact repeats. Equal values may be shown once.
# Legend:
# [1] = Muscle glycogen and food intake after five daily AICAR injections; type: in vivo, rat; details: 24 hrs following the last of five daily AICAR injections; control 43±2
# Method: To determine the effect of chronic activation of AMPK, rats were injected (between 8 and 10 am.) subcutaneously with AICAR (1 mg/g body weight) or saline vehicle for five days in succession. This dose was shown in preliminary experiments to increase ZMP levels in the muscle to 0.57±0.06 μmol/g after 15 min, to 0.79±0.06 μmol/g after 60 min, to 0.69±0.06 μmol/g after 90 min, and to 0.60±0.06 μmol/g after 120 minutes (n=3 at each time point). Beginning with the first injection, controls were pair fed with AICAR-injected rats. Saline injected controls ate 17±1 g and AICAR injected rats ate 18±1 g of food during the 24 hour period prior to blood and tissue collection. […] Muscles were kept under liquid nitrogen until analyzed.
# (§1) Muscles from rats killed 22-25 hours following the fifth AICAR injection were analyzed for glycogen and GLUT4. […] Proteins of these homogenates were separated by SDS-PAGE using 10% resolving gels (Tris-HCl ready gels, BIO-RAD, Hercules, Calif.). […] Relative amounts of GLUT4 were then quantified using a Hewlett Packard ScanJet 6200C and SigmaGel software (SPSS, Inc, Chicago, Ill.). Total intensity of GLUT4 spots on the developed hyperfilm was expressed as a fraction of intensity shown by a GLUT4 standard run on the same gel. […]
# GLUT4 = experiment: Total GLUT4 protein (Western blot) in muscles after chronic AICAR injection; type: in vivo, rat
# Method: This dose was shown in preliminary experiments to increase ZMP levels in the muscle to 0.57±0.06 μmol/g after 15 min, to 0.79±0.06 μmol/g after 60 min, to 0.69±0.06 μmol/g after 90 min, and to 0.60±0.06 μmol/g after 120 minutes (n=3 at each time point). Beginning with the first injection, controls were pair fed with AICAR-injected rats. Saline injected controls ate 17±1 g and AICAR injected rats ate 18±1 g of food during the 24 hour period prior to blood and tissue collection. Rats were anesthetized by intraperitoneal injection of pentobarbital (22-25 hrs following the last AICAR injection) and epitrochlearis, and gastrocnemius/plantaris muscles were collected and frozen as described above. Muscles were kept under liquid nitrogen until analyzed.
# as §1, with “GLUT4. For GLUT4 measurement muscle was ground to powder under liquid nitrogen. See Etgen, G. J., et al. Am. J. Physiol.” for “GLUT4.”
# hexokinase = experiment: Hexokinase activity in muscles after 5 days of AICAR injections; type: in vivo, rat; details: 5 days AICAR 1 mg/g/d, both epitrochlearis and gastrocnemius/plantaris, p<0.001
# Method: (§2) To determine the effect of chronic activation of AMPK, rats were injected (between 8 and 10 am.) subcutaneously with AICAR (1 mg/g body weight) or saline vehicle for five days in succession. This dose was shown in preliminary experiments to increase ZMP levels in the muscle to 0.57±0.06 μmol/g after 15 min, to 0.79±0.06 μmol/g after 60 min, to 0.69±0.06 μmol/g after 90 min, and to 0.60±0.06 μmol/g after 120 minutes (n=3 at each time point). Beginning with the first injection, controls were pair fed with AICAR-injected rats. Saline injected controls ate 17±1 g and AICAR injected rats ate 18±1 g of food during the 24 hour period prior to blood and tissue collection. Rats were anesthetized by intraperitoneal injection of pentobarbital (22-25 hrs following the last AICAR injection) and epitrochlearis, and gastrocnemius/plantaris muscles were collected and frozen as described above. Muscles were kept under liquid nitrogen until analyzed.
# Hexokinase activity was determined spectrophotometrically at 30 C on 700×g supernatants of the same homogenate as was used for GLUT4 measurement Uyeda, K. & E. Racker, J Biol Chem 240:4682-4688 (1965).
# [2] = AICAR 0.25 mg/g body weight; normal (C57/BJ6), insulin deficient diabetic (C57/BJ6STZ) and insulin resistant diabetic (KKAy) mice; cited from earlier work
# [3] = Tissue and blood metabolites of rats after acute AICAR injection; type: in vivo, rat; details: AICAR 1 mg/g s.c., 60 minutes following injection, mean ± SEM n=7
# From the text: (§3) All procedures were approved by the Institutional Animal Care and Use Committee. Male Sprague-Dawley rats weighing 197±5 grams (Sasco, Wilmington, Mass. 01887) were housed in individual cages in a temperature (22-25 C.) and light-controlled (12:12-h light-dark cycle) room and were given food (Harlan Teklad rodent diet, Madison, Wis.) and water ad libitum. To determine acute in vivo effects of AICAR, a jugular catheter was installed and exteriorized on the back of the neck three days prior to the day of the experiment. This catheter was implanted for the purpose of allowing rapid anesthesia of the rat and rapid blood and tissue collection. Rats were then given AICAR (1 mg/g body weight) subcutaneously in sterile 0.9% NaCl or were given 0.9% NaCl (n=7 in each group). One hour following the subcutaneous injection of AICAR, rats were anesthetized by intravenous injection of pentobarbital (4.8 mg/100 g body weight). The epitrochlearis and gastrocnemius/plantaris muscles were quickly removed and rapidly frozen with stainless steel clamps at liquid nitrogen temperature. Blood was collected via the abdominal aorta and a perchloric acid extract was prepared (0.5 ml blood to 2.0 ml 10% HClO4), neutralized and utilized for analysis of glucose and lactate.
# (§4) Muscles from rats killed 1 hour following injection of AICAR or saline were analyzed for AMPK, citrate-dependence of acetyl-CoA carboxylase, malonyl-CoA, glycogen, ZMP, ZTP, ATP, and ADP. Hassid, W Z. & S. Abraham Methods Enzymol. 3:35-36 (1957); McGarry, J. D. et al. J. Biol. Chem. 253:[…] (1978). Blood glucose and lactate were measured by enzymatic techniques. Bergmeyer, H. U., et al. D-Glucose determination with hexokinase and glucose-phosphate dehydrogenase. In: Methods of Enzymatic Analysis, edited by H. U. Bergmeyer. New York: Academic, 1196-1201 (1974); Gutmann I., & A. W. Wahlefeld. L-(+)-Lactate. Determination with lactate dehydrogenase and NAD. In: Methods of Enzymatic Analysis, edited by H. U. Bergmeyer. New York: Academic, 1464-1468 (1974).
# [4] = Preliminary time course of muscle ZMP after AICAR injection; type: in vivo, rat; details: AICAR 1 mg/g s.c., n=3, preliminary experiments
# Method: as §2
# [5] = Tolerability of daily AICAR injections; type: in vivo, rat; details: rats 197±5 grams, 1 mg/g body weight daily
# Method: ATP and ADP were not influenced by the injection with AICAR. ZTP increased from non-detectable levels to 1.2 μmol/g. […] Muscle glycogen and liver glycogen were not acutely influenced 60 minutes following a single injection of AICAR.
# acetyl-CoA carboxylase = experiment: Citrate dependence of acetyl-CoA carboxylase in muscles of AICAR-injected rats; type: in vivo, rat; details: 1 hour following AICAR 1 mg/g
# From the text: as §3
# Muscles from rats killed 1 hour following injection of AICAR or saline were analyzed for AMPK, citrate-dependence of acetyl-CoA carboxylase, malonyl-CoA, glycogen, ZMP, ZTP, ATP, and ADP. Hassid, W Z. & S. Abraham Methods Enzymol. […] Blood glucose and lactate were measured by enzymatic techniques. […]
# Referring to FIG. 2, the citrate dependence of acetyl-CoA carboxylase in gastrocnemius/plantaris muscles of rats 1 hour following injection with AICAR (1 mg/g body weight) or saline is illustrated. Standard errors were determined but are not shown. […] Because of the limited amount of tissue, the entire citrate activation curve could not be determined for epitrochlearis muscle, but the activity of ACC at a physiological concentration of citrate (0.2 mM) was reduced from 0.50±0.10 nmol/g/min to 0.10±0.03 nmol/g/min.
# AMPK [6] = experiment: AMPK activity in muscles of rats following AICAR injection; type: in vivo, rat; details: for AMPK activity increase vs saline: 1 hour following AICAR 1 mg/g injection
# From the text: as §3, §4
# Referring to FIG. 1, the AMPK activity in epitrochlearis and gastrocnemius/plantaris muscles of rats 1 hour following injection with 1 mg/g body weight AICAR or with saline is shown. Values are means ±SEM. […] AMPK activity was increased 2.4 fold in gastrocnemius/plantaris muscles and 4 fold in the epitrochlearis muscles 1 hour following the AICAR injection.
# AMPK [7] = details: analogues of 5'-AMP; cited from earlier work
# [8] = resting rats injected with AICAR
structure (smiles),measurement,setting,value
"NC(=O)c1ncn([C@@H]2O[C@H](CO)[C@@H](O)[C@H]2O)c1N [AICAR, 5-aminoimidazole-4-carboxamide ribonucleoside]",Gastrocnemius/plantaris glycogen,[1],87±4 μmol glucose units/g
same,GLUT4 in epitrochlearis and gastrocnemius/plantaris,"GLUT4; AICAR 1 mg/g/d for five days, vs saline, p<0.001 epitrochlearis, p<0.01 gastrocnemius",marked increases
same,Total GLUT4,"GLUT4; larger rats (350-450 grams), AICAR 0.5 mg/g body weight, n=5/group, control 0.32±0.05, preliminary experiments",0.76±0.08 arbitrary units
same,Hexokinase activity increase over control values,hexokinase,approximately 2.8 fold
same,Duration of acute decrease in blood glucose,[2],4 to 6 h
same,Muscle ADP,[3]; gastrocnemius/plantaris,0.97 ± 0.02 µmol/g
same,Muscle ATP,[3]; gastrocnemius/plantaris,7.6 ± 0.1 µmol/g
same,Muscle Glycogen,[3]; gastrocnemius/plantaris,44 ± 4 µmol/g
same,Muscle Malonyl-CoA,[3]; gastrocnemius/plantaris,0.6 ± 0.1 nmol/g
same,Muscle ZMP,[3]; gastrocnemius/plantaris,0.91 ± 0.02 µmol/g
same,Muscle ZTP,[3]; gastrocnemius/plantaris,1.2 µmol/g and 1.18 ± 0.09 µmol/g
same,Blodd Glucose,[3],5.6 ± 0.6 mM
same,Blood Lactate,[3],6.8 ± 0.5 mM
same,Liver Glycogen,[3],344 ± 44 µmol/g
same,ZMP level in muscle,[4]; after 15 min,0.57 ± 0.06 µmol/g
same,ZMP level in muscle,[4]; after 60 min,0.79 ± 0.06 µmol/g
same,ZMP level in muscle,[4]; after 90 min,0.69 ± 0.06 µmol/g
same,ZMP level in muscle,[4]; after 120 minutes,0.60 ± 0.06 µmol/g
same,Tolerance of injections,[5],no apparent discomfort
same,Activity of ACC at physiological citrate (0.2 mM),"acetyl-CoA carboxylase; epitrochlearis, saline 0.50±0.10",0.10±0.03 nmol/g/min
same,ACC citrate activation constant (Ka),"acetyl-CoA carboxylase; gastrocnemius/plantaris, saline 3.1±0.1",13.0 ± 0.3 mM
same,ACC maximal velocity (Vmax) as a function of citrate concentration,"acetyl-CoA carboxylase; gastrocnemius/plantaris, saline 60.1±1.3",32.4 ± 1.3 nmol/g/min
same,AMPK activity increase vs saline,AMPK [6]; epitrochlearis muscles,4 fold
same,AMPK activity increase vs saline,AMPK [6]; gastrocnemius/plantaris muscles,2.4 fold
same,Duration of increase in muscle AMPK activity,AMPK [6]; [8],at least two
same,Time to increase in muscle AMPK activity after injection,AMPK [6]; [8],≤ 15 min
Nc1ncnc2c([C@@H]3O[C@H](COP(=O)(O)O)[C@@H](O)[C@H]3O)[nH]nc12 [Formycin A 5′-monophosphate],Potency of AMPK activation in vitro,AMPK [7],less potently
NC(=O)c1ncn([C@@H]2O[C@H](COP(=O)(O)O)[C@@H](O)[C@H]2O)c1N [ZMP],Potency of AMPK activation in vitro,AMPK [7],less potently
Nc1ncnc2c1ncn2[C@@H]1O[C@H](COP(N)(=O)O)[C@@H](O)[C@H]1O [adenosine 5′-phosphoramidate],Potency of AMPK activation in vitro,AMPK [7],more potently
Nc1ncnc2c1ncn2[C@@H]1O[C@H](COP(O)(O)=S)[C@@H](O)[C@H]1O [adenosine-5′-thiomonophosphate],Potency of AMPK activation in vitro,AMPK [7],more potently
